According to the supplement of paper PMC13380429:
± gives the standard deviation of the averaged measurements.

Legend:
Details in all cases: 72 h
Vero E6 [1] = experiment: relative viability EC50 (midpoint between 100% and the lowest measured viability); higher = less toxic
Caco-2 [2] = experiment: as above
U2OS [3] = experiment: as above
HepG2 [4] = experiment: as above
Calu-3 [5] = experiment: as above
Vero E6 [6] = experiment: drug sensitivity score (DSS) for viability; higher = more toxic; extreme values may be limits of the assay
Caco-2 [7] = experiment: as above
U2OS [8] = experiment: as above
HepG2 [9] = experiment: as above
Calu-3 [10] = experiment: as above
Vero E6 [11] = experiment: cell viability relative to DMSO; higher = less toxic
Caco-2 [12] = experiment: as above
U2OS [13] = experiment: as above
HepG2 [14] = experiment: as above
Calu-3 [15] = experiment: as above

Row | SMILES | relative viability EC50 (Vero E6 [1]) | relative viability EC50 (Caco-2 [2]) | relative viability EC50 (U2OS [3]) | relative viability EC50 (HepG2 [4]) | relative viability EC50 (Calu-3 [5]) | drug sensitivity score (Vero E6 [6]) | drug sensitivity score (Caco-2 [7]) | drug sensitivity score (U2OS [8]) | drug sensitivity score (HepG2 [9]) | drug sensitivity score (Calu-3 [10]) | cell viability (Vero E6 [11]; 1 nM) | cell viability (Vero E6 [11]; 10 nM) | cell viability (Vero E6 [11]; 100 nM) | cell viability (Vero E6 [11]; 1000 nM) | cell viability (Vero E6 [11]; 10000 nM) | cell viability (Caco-2 [12]; 1 nM) | cell viability (Caco-2 [12]; 10 nM) | cell viability (Caco-2 [12]; 100 nM) | cell viability (Caco-2 [12]; 1000 nM) | cell viability (Caco-2 [12]; 10000 nM) | cell viability (U2OS [13]; 1 nM) | cell viability (U2OS [13]; 10 nM) | cell viability (U2OS [13]; 100 nM) | cell viability (U2OS [13]; 1000 nM) | cell viability (U2OS [13]; 10000 nM) | cell viability (HepG2 [14]; 1 nM) | cell viability (HepG2 [14]; 10 nM) | cell viability (HepG2 [14]; 100 nM) | cell viability (HepG2 [14]; 1000 nM) | cell viability (HepG2 [14]; 10000 nM) | cell viability (Calu-3 [15]; 1 nM) | cell viability (Calu-3 [15]; 10 nM) | cell viability (Calu-3 [15]; 100 nM) | cell viability (Calu-3 [15]; 1000 nM) | cell viability (Calu-3 [15]; 10000 nM)
1 | C[C@@]1(c2cc(-c3cncnc3)c(F)cc2F)CCSC(N)=N1 | > 10 µM | > 10 µM | > 10 µM | > 10 µM | > 10 µM | 0 | 0 | 0 | 0 | 0 | 105% | 103% | 105% | 101% | 96% | 98.7% | 92.8% | 92.3% | 95.1% | 99.4% | 102% | 97.5% | 102% | 97.4% | 100% | 106% | 112% | 101% | 108% | 97.3% | 98% | 104% | 102% | 101% | 101%
2 | O=C(Nc1ccc(C(F)(F)F)cn1)N1CCN(c2ncccc2C(F)(F)F)CC1 | > 10 µM | > 10 µM | > 10 µM | > 10 µM | > 10 µM | 0 | 0 | 0 | 0 | 0 | 102% | 93.9% | 94.9% | 101% | 103% | 97.9% | 99.3% | 97% | 96% | 92.1% | 94.1% | 98.5% | 102% | 99.4% | 100% | 108% | 91.7% | 105% | 98.4% | 101% | 99.3% | 104% | 93% | 100% | 92.8%
3 | O=C(Nc1ccccc1Br)N[C@@H]1CCN(c2ccc(C(F)(F)F)cn2)C1 | > 10 µM | > 10 µM | > 10 µM | > 10 µM | > 10 µM | 0 | 0 | 0 | 0 | 0 | 108% | 100% | 103% | 99.8% | 96.9% | 86.7% | 97.2% | 97.9% | 98% | 86.9% | 98.9% | 102% | 97.4% | 104% | 94.7% | 103% | 106% | 103% | 97.8% | 99.2% | 96.1% | 98.5% | 97.1% | 97.4% | 96.8%
4 | CC1CNc2c(cccc2S(=O)(=O)N[C@@H](CCCNC(=N)N)C(=O)N2CC[C@@H](C)C[C@@H]2C(=O)O)C1 (mixture of isomers) [argatroban] | > 10 µM | > 10 µM | > 10 µM | > 10 µM | > 10 µM | 0 | 0 | 0 | 0 | 0 | 97.7% | 99.1% | 99.2% | 93.4% | 102% | 96.5% | 97.1% | 86.3% | 105% | 94.3% | 98.2% | 104% | 98.9% | 102% | 96.2% | 113% | 93.7% | 96.1% | 87.4% | 97.8% | 91.3% | 97.4% | 98.7% | 93.8% | 94.6%
5 | CC(C)[C@H](N)C(=O)OCC(CO)OCn1cnc2c(=O)nc(N)[nH]c21 (mixture of isomers) [valganciclovir] | > 10 µM | > 10 µM | > 10 µM | > 10 µM | > 10 µM | 0 | 0.3 | 0 | 0 | 0 | 99.3% | 91.8% | 103% | 97.4% | 97.4% | 94.3% | 107% | 103% | 114% | 80% | 90.7% | 102% | 98.2% | 104% | 108% | 97.9% | 95% | 97.3% | 95.8% | 90.5% | 107% | 101% | 108% | 104% | 91.8%
6 | CN(C)CC[C@@]1(c2ccc(Cl)cc2)Cc2ccccc2C(=O)O1 (racemic) [AC-7954-(+/-)] | > 10 µM | > 10 µM | > 10 µM | > 10 µM | > 10 µM | 0 | 0 | 0 | 0 | 0 | 91.4% | 94.8% | 88.3% | 92.8% | 100% | 103% | 92.4% | 98.3% | 102% | 106% | 99% | 94.9% | 99.4% | 105% | 102% | 89.8% | 104% | 104% | 96.4% | 94.8% | 98.2% | 104% | 103% | 96.5% | 104%
7 | CN/C(=N\S(=O)(=O)c1ccc(Cl)cc1)N1C[C@H](c2ccccc2)C(c2ccc(Cl)cc2)=N1 (racemic) [SLV-319-(+/-)] | > 10 µM | > 10 µM | > 10 µM | > 10 µM | > 10 µM | 0 | 0.2 | 0 | 0.1 | 0 | 98.1% | 105% | 100% | 91.3% | 94.8% | 95.1% | 96.3% | 100% | 103% | 83.1% | 99.9% | 99.1% | 102% | 98.9% | 93.1% | 108% | 94.2% | 99.9% | 89.6% | 93.7% | 107% | 98.5% | 100% | 118% | 111%
8 | C[C@@H](C(=O)O)c1ccc(-c2ccccc2)c(F)c1 (racemic) [flurbiprofen-(+/-)] | > 10 µM | > 10 µM | > 10 µM | > 10 µM | > 10 µM | 0 | 0 | 0 | 0 | 0.0333 ± 0.058 | 100 ± 1.8% | 100 ± 1.6% | 97.15 ± 0.92% | 95.7 ± 6.5% | 97.2 ± 1.3% | 98.7 ± 8% | 95.2 ± 2.5% | 95.5 ± 4% | 96 ± 3.3% | 96 ± 8.2% | 101.1 ± 1% | 100 ± 7.2% | 99.4 ± 2.7% | 99 ± 2.2% | 96.4 ± 5% | 94.95 ± 0.21% | 101 ± 9.9% | 94.9 ± 4% | 101 ± 2.8% | 100 ± 1.4% | 92.6 ± 3.4% | 98.7 ± 5.3% | 93.3 ± 9.1% | 96.3 ± 3.1% | 98.3 ± 12%
9 | NC(Cc1ccc(I)cc1)C(=O)O (stereo in doubt) [4-iodo-L-phenylalanine] | > 10 µM | > 10 µM | > 10 µM | > 10 µM | > 10 µM | 0 | 0 | 0 | 0 | 0 | 96.7% | 99.2% | 97.4% | 94.4% | 103% | 102% | 97.4% | 98.2% | 97.3% | 106% | 102% | 97.8% | 98.8% | 102% | 97.6% | 96.3% | 101% | 82.5% | 104% | 109% | 103% | 101% | 106% | 108% | 95.2%
10 | O=C(O)c1cc(O)c2c(Cl)cc(Cl)cc2n1 [5,7-dichlorokynurenic-acid] | > 10 µM | > 10 µM | > 10 µM | > 10 µM | > 10 µM | 0 | 0 | 0 | 0 | 0 | 95.3% | 96.4% | 100% | 98.6% | 98.3% | 98.7% | 98.1% | 96.1% | 92.1% | 96.8% | 96% | 98.2% | 98.2% | 103% | 95.7% | 96.3% | 99.3% | 106% | 96.5% | 102% | 105% | 99.8% | 98.8% | 110% | 112%
11 | CC[C@@]1(O)C(=O)OCc2c1cc1n(c2=O)Cc2cc3cc(O)ccc3nc2-1 [10-hydroxycamptothecin] | 0.9 µM | 0.573 µM | 0.715 µM | 0.0158 µM | 0.0695 µM | 9.1 | 12.2 | 12.7 | 31.8 | 20.5 | 97.4% | 97.5% | 92.9% | 59.9% | 22.5% | 94.2% | 107% | 89.3% | 43% | 13.2% | 102% | 106% | 90.1% | 41.6% | 1.7% | 102% | 47.8% | 31.2% | 5.3% | 2.1% | 95.8% | 97.5% | 48.7% | 31.4% | 20.2%
12 | CC(C)(C)c1cc(C=C(C#N)C#N)cc(Br)c1O [AG-1024] | > 10 µM | > 10 µM | > 10 µM | > 10 µM | > 10 µM | 0 | 1.7 | 0 | 0.3 | 0 | 102% | 96.8% | 98.1% | 94.8% | 92.4% | 98.8% | 96.8% | 101% | 93.3% | 77.4% | 105% | 106% | 102% | 96.4% | 99.2% | 102% | 110% | 109% | 119% | 79.8% | 104% | 92.4% | 92% | 87.8% | 100%
13 | CN[C@@H]1[C@@H](O[C@H]2O[C@H](CO)[C@@H](N)[C@H](O)[C@H]2O)O[C@H]2C[C@@H](N)[C@@H](O[C@H]3[C@H](O)[C@@H](O)[C@H](N)C[C@@H]3N)O[C@@H]2[C@@H]1O [apramycin] | > 10 µM | > 10 µM | > 10 µM | > 10 µM |  | 0 | 0 | 0 | 0 | 2.1 | 102% | 95.3% | 93.2% | 99.9% | 102% | 98% | 89% | 104% | 104% | 92.9% | 105% | 100% | 92.8% | 104% | 99.9% | 106% | 98.1% | 107% | 99.3% | 97.5% | 97.8% | 99.6% | 100% | 91.5% | 74.8%
14 | COc1ccc2cc([C@H](C)C(=O)O)ccc2c1 [naproxen] | > 10 µM | > 10 µM | > 10 µM | > 10 µM | > 10 µM | 0 | 0 | 0 | 0 | 0 | 109% | 97.8% | 98.2% | 101% | 100% | 95.1% | 101% | 102% | 94.9% | 95.3% | 101% | 102% | 98.4% | 96.8% | 102% | 106% | 103% | 104% | 100% | 99.4% |  |  |  |  | 
